# According to patent publication US20250134870A1, “PATHWAY MODULATOR, PHARMACEUTICAL COMPOSITION HAVING SAME, USE THEREOF, AND THERAPEUTIC METHOD USING SAME” (Jiangsu Yahong Meditech Co., Ltd., priority 2021, published 2025):
# Legend:
# [1] = tested on: imiquimod (IMQ)-induced psoriasis; experiment: Imiquimod (IMQ)-induced psoriasis in mice: erythema, scales, thickness, total score, AUC (Example 8); assay type: in vivo, Balb/c mice; parameters: key to erythema score / scales score / thickness score: 0 = none, 1 = mild, 2 = moderate, 3 = obvious/severe; key to total score of erythema + scales + thickness: sum of three 0-3 scores (erythema + scales + thickening), 0-9
# Protocol: All mice were shaved with a pet shaver to get an area of 2×3 cm on the back one day before the start of the experiment.
# 65 animals were randomly divided into groups according to body weight, and the dosing regimen was as follows.
# Imiquimod (IMQ) cream: 62.5 mg of IMQ cream for each mouse in G2 to G7; Dexamethasone (DEX) ointment: 70 mg of ointment for each mouse in G4;
# Tofacitinib: Tofacitinib was dissolved in dimethyl sulfoxide to 5 mg/mL, and 50 μL was added to IMQ cream for daily treatment.
# Mice in Groups 2 to 7 received daily topical doses of 62.5 mg of IMQ cream on their shaved back from Day 0 to Day 7.
# Dosing of the test compounds and reference substance was carried out according to Table 29 for 7 consecutive days.
# To assess the severity of inflammation of skin on the back, the skin on the back was scored according to Table 30. Erythema, scales and thickening were scored independently on a scale of 0 to 3, 0, none; 1. mild; 2. moderate; 3. obvious/severe.
# The inhibition rate was calculated according to the following formula: Inhibition rate=[AUC (solvent)−AUC (treatment)]/AUC (solvent)×100%. Wherein, solvent referred to the solvent group corresponding to the route of administration.
# [2] = tested on: collagen-induced arthritis (CIA); experiment: Collagen-induced arthritis (CIA) in mice: body weight, clinical score, AUC, incidence (Example 9); assay type: in vivo, DBA/1 mice; details: 50 mg/kg PO QD, 2 weeks
# Protocol: DBA/1 mice were anesthetized with isoflurane and injected subcutaneously with 50 μL of prepared collagen emulsion (containing 200 μg of CII) in the tail. The day of the first immunization was recorded as Day 0, and the subsequent days were marked sequentially. On Day 21, mice were injected with a same volume of collagen emulsion in the tail.
# Dosing lasted for 14 consecutive days. Compounds were prepared every 3 days and stored at 4° C.
# Since Day 28, mice were weighed three times a week and clinical scores were recorded until the end of the experiment.
# Clinical score: scores were given according to different degrees of lesions (redness and swelling, arthrentasis) on a scale of 0-4 points, the highest score was 4 points for each limb and 16 points for each animal.
# Experimental data were represented as mean±standard error. Body weight and clinical score were analyzed by two-way ANOVA, and difference with p<0.05 was considered as significant.
# [3] = Day 0, 50 mg/kg oral QD (Nepicastat A)
# [4] = Day 0, 100 mg/kg topical QD (Nepicastat B)
# [5] = Day 0, group Nepicastat A (50 mpk oral)
# [6] = Day 0, group Nepicastat B (100 mpk topical)
# [7] = Day 1, 50 mg/kg oral QD (Nepicastat A)
# [8] = Day 1, 100 mg/kg topical QD (Nepicastat B)
# [9] = Day 1, group Nepicastat A (50 mpk oral)
# [10] = Day 1, group Nepicastat B (100 mpk topical)
# [11] = Day 2, 50 mg/kg oral QD (Nepicastat A)
# [12] = Day 2, 100 mg/kg topical QD (Nepicastat B)
# [13] = Day 2, group Nepicastat A (50 mpk oral)
# [14] = Day 2, group Nepicastat B (100 mpk topical)
# [15] = Day 3, 50 mg/kg oral QD (Nepicastat A)
# [16] = Day 3, 100 mg/kg topical QD (Nepicastat B)
# [17] = Day 3, group Nepicastat A (50 mpk oral)
# [18] = Day 3, group Nepicastat B (100 mpk topical)
# [19] = Day 4, 50 mg/kg oral QD (Nepicastat A)
# [20] = Day 4, 100 mg/kg topical QD (Nepicastat B)
# [21] = Day 4, group Nepicastat A (50 mpk oral)
# [22] = Day 4, group Nepicastat B (100 mpk topical)
# [23] = Day 5, 50 mg/kg oral QD (Nepicastat A)
# [24] = Day 5, 100 mg/kg topical QD (Nepicastat B)
# [25] = Day 5, group Nepicastat A (50 mpk oral)
# [26] = Day 5, group Nepicastat B (100 mpk topical)
# [27] = Day 6, 50 mg/kg oral QD (Nepicastat A)
# [28] = Day 6, 100 mg/kg topical QD (Nepicastat B)
# [29] = Day 6, group Nepicastat A (50 mpk oral)
# [30] = Day 6, group Nepicastat B (100 mpk topical)
# [31] = Day 7, 50 mg/kg oral QD (Nepicastat A)
# [32] = Day 7, 100 mg/kg topical QD (Nepicastat B)
# [33] = Day 7, group Nepicastat A (50 mpk oral)
# [34] = Day 7, group Nepicastat B (100 mpk topical)
# [35] = oral administration 50 mg/kg, Day 5 to Day 7
compound,measurement,setting,value
NCc1c[nH]c(=S)n1[C@H]1CCc2c(F)cc(F)cc2C1 [Nepicastat],progression and incidence of the disease,[1]; 50 mg/kg oral and 100 mg/kg topical QD × 7 days,"did not affect the progression and incidence of the disease, but showed efficacy at the later stages of the disease course (Day 5 to Day 7)"
same,efficacy on the clinical score of the skin,[1]; 100 mpk topical QD × 7 days,no significant efficacy
same,erythema score,[1]; [3],0
same,scales score,[1]; [3],0
same,erythema score,[1]; [4],0
same,scales score,[1]; [4],0
same,thickness score,[1]; [5],0
same,total score of erythema + scales + thickness,[1]; [5],0
same,thickness score,[1]; [6],0
same,total score of erythema + scales + thickness,[1]; [6],0
same,erythema score,[1]; [7],0
same,scales score,[1]; [7],0
same,erythema score,[1]; [8],0
same,scales score,[1]; [8],0
same,thickness score,[1]; [9],0.6
same,total score of erythema + scales + thickness,[1]; [9],0.6
same,thickness score,[1]; [10],0.9
same,total score of erythema + scales + thickness,[1]; [10],0.9
same,erythema score,[1]; [11],1.4
same,scales score,[1]; [11],0
same,erythema score,[1]; [12],1.5
same,scales score,[1]; [12],0
same,thickness score,[1]; [13],1.2
same,total score of erythema + scales + thickness,[1]; [13],2.6
same,thickness score,[1]; [14],1.3
same,total score of erythema + scales + thickness,[1]; [14],2.8
same,erythema score,[1]; [15],1.5
same,scales score,[1]; [15],0
same,erythema score,[1]; [16],1.8
same,scales score,[1]; [16],0
same,thickness score,[1]; [17],1.6
same,total score of erythema + scales + thickness,[1]; [17],3.1
same,thickness score,[1]; [18],1.5
same,total score of erythema + scales + thickness,[1]; [18],3.3
same,erythema score,[1]; [19],1.6
same,scales score,[1]; [19],1.1
same,erythema score,[1]; [20],1.8
same,scales score,[1]; [20],1.2
same,thickness score,[1]; [21],1.4
same,total score of erythema + scales + thickness,[1]; [21],4.1
same,thickness score,[1]; [22],1.5
same,total score of erythema + scales + thickness,[1]; [22],4.5
same,erythema score,[1]; [23],1.6
same,scales score,[1]; [23],1.6
same,erythema score,[1]; [24],1.7
same,scales score,[1]; [24],2.5
same,thickness score,[1]; [25],1.3
same,total score of erythema + scales + thickness,[1]; [25],4.5
same,thickness score,[1]; [26],1.3
same,total score of erythema + scales + thickness,[1]; [26],5.5
same,erythema score,[1]; [27],1.7
same,scales score,[1]; [27],1.9
same,erythema score,[1]; [28],1.5
same,scales score,[1]; [28],2.4
same,thickness score,[1]; [29],1.4
same,total score of erythema + scales + thickness,[1]; [29],5
same,thickness score,[1]; [30],1.3
same,total score of erythema + scales + thickness,[1]; [30],5.2
same,erythema score,[1]; [31],1.6
same,scales score,[1]; [31],2.1
same,erythema score,[1]; [32],1.2
same,scales score,[1]; [32],2.1
same,thickness score,[1]; [33],1.4
same,total score of erythema + scales + thickness,[1]; [33],5.1
same,thickness score,[1]; [34],1.4
same,total score of erythema + scales + thickness,[1]; [34],4.7
same,inhibition at 50 mg/kg,"[1]; Mus musculus, 168 h, 50 mpk oral QD × 7 days, vs corresponding solvent group, read-out: inhibition rate (AUC of total clinical score)",23.6%
same,therapeutic effect on clinical symptoms,"[1]; PO 50 mg/kg QD × 7 days, vs solvent group and control group",mild therapeutic effect on clinical symptoms
same,erythema,[1]; [35],inhibited
same,thickness,[1]; [35],inhibited
same,erythema,"[1]; topical administration 100 mg/kg, Day 4 to Day 7",inhibited
same,effect on collagen-induced arthritis in mice,[2],"had some known effects on collagen-induced arthritis in mice, but not as obvious as the positive control drug"
